Results on 1 compound are retold here after patent publication US9255248B2, “Method of producing erythrocytes without feeder cells” (Anthrogenesis Corporation, priority 2009, dated 2016).

The subject of test [1] is human UCB derived CD34+ cells. Description: Short-term serum-free, cytokine supplemented expansion of UCB derived CD34+ cells with pomalidomide. The class given is cell-based. The note with it: for CD34+ phenotype in the expanded population / CD133 level of expanded CD34+ cells / expanded CD34+ cells that are CD38 negative / total nucleated cell expansion: pomalidomide 2.7 μg/mL, 12 days. As to the method: The ability of pomalidomide to enhance the expansion of human UCB derived CD34^+ cells in a short-term serum-free, cytokine supplemented culture system was evaluated. CD34^+ progenitor cells were enriched from cryopreserved UCB units to >90% purity and seeded (104 CD34^+ cells) in 1 mL of growth medium, which consists of IMDM plus serum substitute BIT (BSA, recombinant human insulin and transferrin, 20%), in the presence of SCF (50 ng/mL), Flt-3 ligand (50 ng/mL), and IL-3 (10 ng/mL). Pomalidomide, dissolved in DMSO, was supplemented at 2.7 μg/mL. The culture was incubated at 37° C., 5% CO2 for 12 days, with fresh medium added at day 7. Pomalidomide-free cultures with or without DMSO (0.05% v/v) were used as controls.

The test system of test [2] is CD34+ cells. Description: Scaled-up pomalidomide-based CD34+ expansion in gas-permeable culture bag. The class given is cell-based, human. How it is done:
CD34^+ cells were seeded in 10^4/mL pomalidomide-supplemented medium in a flexible, gas-permeable fluorocarbon culture bag (American Fluoroseal). After 7 days of incubation, the culture was centrifuged and exchanged with fresh pomalidomide-supplemented medium at three times the initial volume. By day 12, TNC and CD34^+ expansion were 350 (range: 250-700) and 200 (range: 100-450) fold, respectively (FIG. 4). Viability was 86% (range: 80-90%) by trypan blue. A total of 20 million CD34^+ cells were harvested.

Setting [3] is: day 12, culture bag, seeded 10^4/mL.

Regarding `Nc1cccc2c1C(=O)N(C1CCC(=O)NC1=O)C2=O` (stereo not shown) [pomalidomide, 4-(Amino)-2-(2,6-dioxo(3-piperidyl))-isoindoline-1,3-dione], in test [1] (first experiment), the “CD34+ expression in the expanded population versus control” value was “significantly higher CD34^+ expression”, the “CD38 expression on cultured cells” value is on record as “appeared to down-regulate CD38 expression”, the “cumulative colony forming units relative to expanded controls” value is “substantial improvement” and the “CD34+ phenotype in the expanded population” value is given as 40-60%. For the same compound, in test [1] (first experiment), the “CD133 level of expanded CD34+ cells” value was 15%, the “expanded CD34+ cells that are CD38 negative” value was 95% and the “total nucleated cell expansion” value was 200-350 fold. For the same compound, in test [1] (second similar experiment), the “CD34+ phenotype in the expanded population” value was 40-60%, the “CD133 level of expanded CD34+ cells” value stood at 11.5%, the “expanded CD34+ cells that are CD38 negative” value was found to be 97% and the “total nucleated cell expansion” value is 200-350 fold. Further, in test [1] (second similar experiment), the “CD34+ expression in the expanded population versus control” value is “significantly higher CD34^+ expression”, the “CD38 expression on cultured cells” value is “appeared to down-regulate CD38 expression” and the “cumulative colony forming units relative to expanded controls” value was “substantial improvement”. For the same compound, the “ex-vivo expansion of placental derived CD34+ progenitors” value in test [2] was “significantly enhanced”. In test [2] (day 12, culture bag), the “Viability by trypan blue” value is recorded as 86% (range: 80-90%) and the “total CD34+ cells harvested” value worked out at 20 million. In test [2] (setting [3]), the “CD34+ expansion” value is 200 (range: 100-450) fold and the TNC expansion was 350 (range: 250-700) fold.
